Active and inactive are the calls of the source. No cut-off for these calls is given here.
What was measured:
NCI-H1975 [1] = assay: Induction of apoptosis in human NCI-H1975 cells harboring EGFR L858R/T790M mutant assessed as live cells at 0.5 uM measured after 18 hrs by Annexin V-FITC/PI staining based flow cytometry analysis (Rvb= 89.4%); assay type: functional
[2] = biological target: Ribosomal protein S6 kinase beta-1 (Homo sapiens) (UniProt P23443); assay: Inhibition of P70S6K phosphorylation in human HCC827 cells at 0.1 to 5 uM incubated for 2 hrs by immunoblotting analysis; assay type: cell-based; settings: dose 0.1-5 µM
Sequence of Ribosomal protein S6 kinase beta-1 (Homo sapiens) (P23443 whole entry, looked up): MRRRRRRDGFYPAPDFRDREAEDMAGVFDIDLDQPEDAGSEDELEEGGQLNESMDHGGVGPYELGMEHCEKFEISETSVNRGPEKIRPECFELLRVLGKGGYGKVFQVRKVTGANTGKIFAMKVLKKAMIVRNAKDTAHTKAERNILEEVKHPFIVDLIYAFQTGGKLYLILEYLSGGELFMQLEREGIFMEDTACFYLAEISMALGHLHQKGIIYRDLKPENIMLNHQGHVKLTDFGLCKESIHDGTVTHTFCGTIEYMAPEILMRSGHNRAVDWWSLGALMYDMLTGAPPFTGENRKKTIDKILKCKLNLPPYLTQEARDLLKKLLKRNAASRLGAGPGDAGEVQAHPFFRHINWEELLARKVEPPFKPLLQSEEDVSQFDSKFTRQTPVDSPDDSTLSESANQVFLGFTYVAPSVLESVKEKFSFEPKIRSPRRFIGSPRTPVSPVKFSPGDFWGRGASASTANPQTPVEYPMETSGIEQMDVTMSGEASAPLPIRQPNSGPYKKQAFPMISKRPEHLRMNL

HCC827 [3] = assay: Induction of apoptosis in human HCC827 cells harboring EGFR del E746-A750 mutant assessed as dead cells at 5 uM measured after 18 hrs by Annexin V-FITC/PI staining based flow cytometry analysis (Rvb= […]); assay type: functional
HCC827 [4] = assay: Induction of apoptosis in human HCC827 cells harboring EGFR del E746-A750 mutant assessed as total apoptotic cells at 0.5 uM measured after 18 hrs by Annexin V-FITC/PI staining based flow cytometry analysis (Rvb= 10.8%); assay type: functional
HCC827 [5] = assay: Induction of cell cycle arrest in human HCC827 cells harboring EGFR del E746-A750 mutant assessed as accumulation of cells in G0/G1 phase at 0.5 uM measured after 18 hrs by PI/RNaseA staining based flow cytometry analysis (Rvb= 49.60%); assay type: functional
NCI-H1975 [6] = assay: Induction of apoptosis in human NCI-H1975 cells harboring EGFR L858R/T790M mutant assessed as live cells at 5 uM measured after 18 hrs by Annexin V-FITC/PI staining based flow cytometry analysis (Rvb= 89.4%); assay type: functional
A549 [7] = assay: Induction of cell cycle arrest in human A549 cells harboring wild type EGFR assessed as accumulation of cells in G0/G1 phase at 0.5 uM measured after 18 hrs by PI/RNaseA staining based flow cytometry analysis (Rvb= 58.27%); assay type: functional
A549 [8] = assay: Induction of cell cycle arrest in human A549 cells harboring wild type EGFR assessed as accumulation of cells in G2/M phase at 0.5 uM measured after 18 hrs by PI/RNaseA staining based flow cytometry analysis (Rvb= 8.47%); assay type: functional
HCC827 [9] = assay: Induction of apoptosis in human HCC827 cells harboring EGFR del E746-A750 mutant assessed as live cells at 5 uM measured after 18 hrs by Annexin V-FITC/PI staining based flow cytometry analysis (Rvb= 87.5%); assay type: functional
HCC827 [10] = assay: Induction of cell cycle arrest in human HCC827 cells harboring EGFR del E746-A750 mutant assessed as accumulation of cells in G2/M phase at 1 uM measured after 18 hrs by PI/RNaseA staining based flow cytometry analysis (Rvb= 16.78%); assay type: functional
HCC827 [11] = assay: Induction of apoptosis in human HCC827 cells harboring EGFR del E746-A750 mutant assessed as early apoptotic cells at 5 uM measured after 18 hrs by Annexin V-FITC/PI staining based flow cytometry analysis (Rvb= 9.6%); assay type: functional
NCI-H1975 [12] = assay: Inhibition of AKT phosphorylation in human NCI-H1975 cells at 0.1 to 5 uM incubated for 2 hrs by immunoblotting analysis; assay type: cell-based; settings: dose 0.1-5 µM
NCI-H1975 [13] = assay: Induction of cell cycle arrest in human NCI-H1975 cells harboring EGFR L858R/T790M mutant assessed as accumulation of cells in G2/M phase at 0.5 uM measured after 18 hrs by PI/RNaseA staining based flow cytometry analysis (Rvb= 17.33%); assay type: functional
NCI-H1975 [14] = assay: Induction of apoptosis in human NCI-H1975 cells harboring EGFR L858R/T790M mutant assessed as late apoptotic cells at 5 uM measured after 18 hrs by Annexin V-FITC/PI staining based flow cytometry analysis (Rvb= 0.1%); assay type: functional
[15] = biological target: MAP kinase p38 (Homo sapiens) (UniProt O15264+Q15759+Q16539+P53778); assay: Inhibition of p38 MAPK phosphorylation at Thr180/Tyr182 residue in human HBE cells at 5 uM incubated for 2 hrs by immunoblotting analysis; assay type: cell-based
HCC827 [16] = assay: Induction of cell cycle arrest in human HCC827 cells harboring EGFR del E746-A750 mutant assessed as accumulation of cells in G2/M phase at 5 uM measured after 18 hrs by PI/RNaseA staining based flow cytometry analysis (Rvb= 16.78%); assay type: functional
[17] = biological target: Ribosomal protein S6 kinase beta-1 (Homo sapiens) (UniProt P23443); assay: Inhibition of P70S6K phosphorylation in human NCI-H1975 cells at 0.1 to 5 uM incubated for 2 hrs by immunoblotting analysis; assay type: cell-based; settings: dose 0.1-5 µM
HCC827 [18] = assay: Induction of apoptosis in human HCC827 cells harboring EGFR del E746-A750 mutant assessed as late apoptotic cells at 0.5 uM measured after 18 hrs by Annexin V-FITC/PI staining based flow cytometry analysis (Rvb= 1.2%); assay type: functional
HCC827 [19] = assay: Inhibition of AKT phosphorylation in human HCC827 cells at 0.1 to 5 uM incubated for 2 hrs by immunoblotting analysis; assay type: cell-based; settings: dose 0.1-5 µM
NCI-H1975 [20] = assay: Induction of cell cycle arrest in human NCI-H1975 cells harboring EGFR L858R/T790M mutant assessed as accumulation of cells in G2/M phase at 1 uM measured after 18 hrs by PI/RNaseA staining based flow cytometry analysis (Rvb= 17.33%); assay type: functional
A549 [21] = assay: Induction of cell cycle arrest in human A549 cells harboring wild type EGFR assessed as accumulation of cells in G0/G1 phase at 5 uM measured after 18 hrs by PI/RNaseA staining based flow cytometry analysis (Rvb= 58.27%); assay type: functional
NCI-H1975 [22] = assay: Induction of cell cycle arrest in human NCI-H1975 cells harboring EGFR L858R/T790M mutant assessed as accumulation of cells in G0/G1 phase at 5 uM measured after 18 hrs by PI/RNaseA staining based flow cytometry analysis (Rvb= 42.69%); assay type: functional
HCC827 [23] = assay: Induction of apoptosis in human HCC827 cells harboring EGFR del E746-A750 mutant assessed as early apoptotic cells at 0.5 uM measured after 18 hrs by Annexin V-FITC/PI staining based flow cytometry analysis (Rvb= 9.6%); assay type: functional
NCI-H1975 [24] = assay: Induction of apoptosis in human NCI-H1975 cells harboring EGFR L858R/T790M mutant assessed as dead cells at 5 uM measured after 18 hrs by Annexin V-FITC/PI staining based flow cytometry analysis (Rvb= […]); assay type: functional
A549 [25] = assay: Induction of cell cycle arrest in human A549 cells harboring wild type EGFR assessed as accumulation of cells in S phase at 1 uM measured after 18 hrs by PI/RNaseA staining based flow cytometry analysis (Rvb= 33.26%); assay type: functional
NCI-H1975 [26] = assay: Induction of cell cycle arrest in human NCI-H1975 cells harboring EGFR L858R/T790M mutant assessed as accumulation of cells in G0/G1 phase at 0.5 uM measured after 18 hrs by PI/RNaseA staining based flow cytometry analysis (Rvb= 42.69%); assay type: functional
[27] = biological target: Signal transducer and activator of transcription 3 (Homo sapiens) (UniProt P40763); assay: Inhibition of STAT3 phosphorylation at Ser727 residue in human HBE cells at 5 uM incubated for 2 hrs by immunoblotting analysis; assay type: cell-based
Sequence of Signal transducer and activator of transcription 3 (Homo sapiens) (P40763 whole entry): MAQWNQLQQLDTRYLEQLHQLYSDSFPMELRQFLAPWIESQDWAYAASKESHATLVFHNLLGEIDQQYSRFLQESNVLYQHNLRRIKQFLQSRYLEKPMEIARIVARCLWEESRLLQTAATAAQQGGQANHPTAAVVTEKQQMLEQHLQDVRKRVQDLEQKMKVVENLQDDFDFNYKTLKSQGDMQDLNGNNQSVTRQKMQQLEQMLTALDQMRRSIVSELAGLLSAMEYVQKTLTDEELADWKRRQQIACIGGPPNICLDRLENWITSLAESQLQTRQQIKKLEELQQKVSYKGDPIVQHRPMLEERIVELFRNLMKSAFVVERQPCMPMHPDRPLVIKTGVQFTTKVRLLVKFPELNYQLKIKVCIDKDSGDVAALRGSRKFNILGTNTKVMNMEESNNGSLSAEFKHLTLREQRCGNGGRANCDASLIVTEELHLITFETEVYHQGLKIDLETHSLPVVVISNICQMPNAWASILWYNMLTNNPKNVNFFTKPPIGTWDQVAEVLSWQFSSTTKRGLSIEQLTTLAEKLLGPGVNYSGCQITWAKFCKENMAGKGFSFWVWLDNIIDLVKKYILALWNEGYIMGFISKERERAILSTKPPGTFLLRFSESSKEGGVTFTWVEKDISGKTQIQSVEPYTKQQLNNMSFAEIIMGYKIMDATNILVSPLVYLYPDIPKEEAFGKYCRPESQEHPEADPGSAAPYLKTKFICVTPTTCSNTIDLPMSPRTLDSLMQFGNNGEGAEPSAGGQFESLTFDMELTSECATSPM

For `C=CC(=O)Nc1cccc(Oc2nc(Nc3ccc(N4CCN(C)CC4)c(N)c3)nc3[nH]ccc23)c1`, the Activity (NCI-H1975 [1]) was 81.1%, the inhibition [2] was “Active” and the Activity (HCC827 [3]) was 2.1%. It also gave an Activity (HCC827 [4]) of 23.6%, an Activity (HCC827 [5]) of 74.57% and an Activity (NCI-H1975 [6]) of 81.9%. For the same molecule, the Activity (A549 [7]) was 60.45%, the Activity (A549 [8]) was 10.49% and the Activity (HCC827 [9]) was 74.3%. For the same molecule, the Activity (HCC827 [10]) was 7.18%, the Activity (HCC827 [11]) was 12.1% and the inhibition (NCI-H1975 [12]) was “Active”. The Activity (NCI-H1975 [13]) was 16.64%, the Activity (NCI-H1975 [14]) was 0.2% and the inhibition [15] was “Active”. The Activity (HCC827 [16]) was 7.95%, the inhibition [17] was “Active” and the Activity (HCC827 [18]) was 12.5%. For the same molecule, the inhibition (HCC827 [19]) was “Active”, the Activity (NCI-H1975 [20]) was 11.6% and the Activity (A549 [21]) was 85.05%. It also gave an Activity (NCI-H1975 [22]) of 80.62%, an Activity (HCC827 [23]) of 11.1% and an Activity (NCI-H1975 [24]) of 2%. The Activity (A549 [25]) was 26.07%, the Activity (NCI-H1975 [26]) was 64.04% and the inhibition [27] was “inactive”.
With `C=CC(=O)Nc1cccc(Oc2nc(Nc3ccc(N4CCN(C)CC4)c(F)c3)nc3[nH]ccc23)c1` [ABIVERTINIB] the Activity (NCI-H1975 [1]) was 89%, the inhibition [2] was “Active” and the Activity (HCC827 [3]) was 1.5%. The Activity (HCC827 [4]) was 30.3%, the Activity (HCC827 [5]) was 75.11% and the Activity (NCI-H1975 [6]) was 86.3%. For the same molecule, the Activity (A549 [7]) was 59.82%, the Activity (A549 [8]) was 10.15% and the Activity (HCC827 [9]) was 63%. The Activity (HCC827 [10]) was 11.63%, the Activity (HCC827 [11]) was 13.8% and the inhibition (NCI-H1975 [12]) was “Active”. The Activity (NCI-H1975 [13]) was 17.05%, the Activity (NCI-H1975 [14]) was 0.4% and the inhibition [15] was “Active”. For the same molecule, the Activity (HCC827 [16]) was 8.82%, the inhibition [17] was “Active” and the Activity (HCC827 [18]) was 18.3%. The inhibition (HCC827 [19]) was “Active”, the Activity (NCI-H1975 [20]) was 17.13% and the Activity (A549 [21]) was 77.6%. For the same molecule, the Activity (NCI-H1975 [22]) was 79.06%, the Activity (HCC827 [23]) was 12% and the Activity (NCI-H1975 [24]) was 2%. The Activity (A549 [25]) was 28.99%, the Activity (NCI-H1975 [26]) was 61.74% and the inhibition [27] was “inactive”.
For `C=CC(=O)Nc1cccc(Oc2nc(Nc3ccc(N4CCN(C)CC4)c([N+](=O)[O-])c3)nc3[nH]ccc23)c1`, the Activity (NCI-H1975 [1]) was 85.3%, the inhibition [2] was “Active” and the Activity (HCC827 [3]) was 2.5%. For the same molecule, the Activity (HCC827 [4]) was 23.8%, the Activity (HCC827 [5]) was 77.19% and the Activity (NCI-H1975 [6]) was 84.7%. It also gave an Activity (A549 [7]) of 62.63%, an Activity (A549 [8]) of 9.99% and an Activity (HCC827 [9]) of 73.7%. The Activity (HCC827 [10]) was 11.55%, the Activity (HCC827 [11]) was 10.9% and the inhibition (NCI-H1975 [12]) was “Active”. The Activity (NCI-H1975 [13]) was 14.32%, the Activity (NCI-H1975 [14]) was 0.3% and the inhibition [15] was “Active”. For the same molecule, the Activity (HCC827 [16]) was 14.12%, the inhibition [17] was “Active” and the Activity (HCC827 [18]) was 11.4%. The inhibition (HCC827 [19]) was “Active”, the Activity (NCI-H1975 [20]) was 14.81% and the Activity (A549 [21]) was 82.55%. For the same molecule, the Activity (NCI-H1975 [22]) was 80.34%, the Activity (HCC827 [23]) was 12.4% and the Activity (NCI-H1975 [24]) was 1.8%. The Activity (A549 [25]) was 21.21%, the Activity (NCI-H1975 [26]) was 64.89% and the inhibition [27] was “inactive”.

Source: ChEMBL document CHEMBL4828722, “The synthesis and bioactivity of pyrrolo[2,3-d]pyrimidine derivatives as tyrosine kinase inhibitors for NSCLC cells with EGFR mutations” (Eur J Med Chem, 2021)
